Experimental data reported in patent US7547513B2, “Mutants of deoxycytidine kinase having extended enzymatic activity” (priority 2001, dated 2009).

Assays:
Assay type in all cases: cell-based
[1] = tested on: Escherichia coli β7334 Δdeo tdk cdd::Tn10 pSUTrc (dck allele: none); details: strain β7334, dck allele none; 18 h 37° C., MS medium + IPTG
Experimental: (§1) The culture was then diluted 100 times in the same medium supplemented with IPTG and distributed on 96-well microplates in a final volume of 100 μl in a series of dilutions from to 2 to 2 nucleotide analogues. Each analogue was tested twice. After incubation for 18 hours at 37° C. with stirring, the MIC was determined as corresponding to the lowest analogue concentration for which no turbidity was detectable.
(§2) The toxicity of nucleoside analogues, deviating either by the sugar or by the base, was evaluated in strains of genotype Δdeo tdk cdd expressing on a plasmid the different dckH alleles, wild-type allele, D133E, R104Q and double mutant.
(§3) The minimum inhibitory concentrations, expressed in microM, were determined as indicated in the section Materials and Methods.

[2] = tested on: Escherichia coli β7338 Δdeo tdk cdd::Tn10 pSUDCK4 (dck:D133E-R104Q); details: strain β7338, dck allele D133E R104Q; 18 h 37° C., MS medium + IPTG
Experimental: as §1, §2, §3

[3] = tested on: Escherichia coli β7336 Δdeo tdk cdd::Tn10 pSUDCK2 (dck:D133E); details: strain β7336, dck allele D133E; 18 h 37° C., MS medium + IPTG
Experimental: The culture was then diluted 100 times in the same medium supplemented with IPTG and distributed on 96-well microplates in a final volume of 100 μl in a series of dilutions from to 2 to 2 nucleotide analogues. Each analogue was tested twice.
as §2, §3

Row | Structure (SMILES) | minimum inhibitory concentration (MIC) [1] | minimum inhibitory concentration (MIC) [2] | minimum inhibitory concentration (MIC) [3]
1 | Cc1cn([C@H]2CC[C@@H](CO)O2)c(=O)[nH]c1=O [ddT] | > (no toxicity could be detected at the highest analogue concentration, 1.28 mM) | > (no toxicity could be detected at the highest analogue concentration, 1.28 mM) | –
2 | Cc1cn([C@H]2C[C@H](O)[C@@H](CN)O2)c(=O)[nH]c1=O [5′-amino-dT] | > (no toxicity could be detected at the highest analogue concentration, 1.28 mM) | > (no toxicity could be detected at the highest analogue concentration, 1.28 mM) | –
3 | O=c1[nH]c(=O)n([C@H]2C[C@H](O)[C@@H](CO)O2)cc1I [5-iodo-dU] | > (no toxicity could be detected at the highest analogue concentration, 1.28 mM) | > (no toxicity could be detected at the highest analogue concentration, 1.28 mM) | –
4 | Cc1cn([C@H]2C[C@H](O)[C@@H](CO)O2)c(N)nc1=O [5-methyl-disoC] | > (no toxicity could be detected at the highest analogue concentration, 1.28 mM) | > (no toxicity could be detected at the highest analogue concentration, 1.28 mM) | –
5 | O=c1ccn([C@H]2CC[C@@H](CO)O2)c(=O)[nH]1 [ddU] | > (no toxicity could be detected at the highest analogue concentration, 1.28 mM) | > (no toxicity could be detected at the highest analogue concentration, 1.28 mM) | –
6 | O=c1[nH]c(=O)n([C@H]2C[C@H](O)[C@@H](CO)O2)cc1Cl [5-chloro-dU] | > (no toxicity could be detected at the highest analogue concentration, 1.28 mM) | > (no toxicity could be detected at the highest analogue concentration, 1.28 mM) | –
7 | Nc1nc(=O)n([C@H]2C[C@H](O)[C@@H](CO)O2)cc1Br [5-bromo-dC, 5-bromo-2-deoxycytidine] | > (no toxicity could be detected at the highest analogue concentration, 1.28 mM) | > (no toxicity could be detected at the highest analogue concentration, 1.28 mM) | –
8 | Nc1ccn([C@H]2CC[C@@H](CO)O2)c(=O)n1 [ddC] | > (no toxicity could be detected at the highest analogue concentration, 1.28 mM) | > (no toxicity could be detected at the highest analogue concentration, 1.28 mM) | –
9 | Nc1nc2c(ncn2[C@@H]2C[C@H](O)[C@@H](CO)O2)c(=O)o1 [d-oxanosine] | > (no toxicity could be detected at the highest analogue concentration, 1.28 mM) | > (no toxicity could be detected at the highest analogue concentration, 1.28 mM) | 80 µM
10 | O=c1[nH]c(=O)n([C@H]2C[C@H](O)[C@@H](CO)O2)cc1CO [5-hm-dU] | > (no toxicity could be detected at the highest analogue concentration, 1.28 mM) | > (no toxicity could be detected at the highest analogue concentration, 1.28 mM) | –
